From ChEMBL document CHEMBL1201862, “PubChem BioAssay data set” (2004)
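96-well plates; 48 h exposure; 5 concentrations. Endpoints by linear interpolation between flanking doses. Not reached: highest tested concentration assigned. The concentration for 50% growth inhibition is given as GI50.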 Calls of active or inactive are those of the source. No stated cut-off is given here; in the data, active = GI50 up to about 1.1 µM and inactive = higher.

Assays:
Test in all cases: inhibition of tumour cell growth, NCI panel, 48 h
[1] = system: EKVX
[2] = system: UACC-62
[3] = system: ACHN
[4] = system: SK-MEL-5
[5] = system: HCT-116
[6] = system: CAKI-1
[7] = system: CCRF-CEM
[8] = system: SF-295
[9] = system: MDA-MB-435
[10] = system: A498
[11] = system: MDA-MB-231
[12] = system: K562
[13] = system: HOP-62
[14] = system: SK-MEL-28
[15] = system: NCI-H23
[16] = system: A549
[17] = system: SW-620
[18] = system: HCC 2998
[19] = system: HL-60
[20] = system: Malme-3M

| Structure (SMILES) | GI50 [1] | GI50 [2] | GI50 [3] | GI50 [4] | GI50 [5] | GI50 [6] | GI50 [7] | GI50 [8] | GI50 [9] | GI50 [10] | GI50 [11] | GI50 [12] | GI50 [13] | GI50 [14] | GI50 [15] | GI50 [16] | GI50 [17] | GI50 [18] | GI50 [19] | GI50 [20] |
| --- | --- | --- | --- | --- | --- | --- | --- | --- | --- | --- | --- | --- | --- | --- | --- | --- | --- | --- | --- | --- |
| Cn1c(=O)c2c(nc3n2CC(=O)N3CCCCl)n(C)c1=O | > 100 µM (inactive) | > 100 µM (inactive) | > 100 µM (inactive) | > 100 µM (inactive) | > 100 µM (inactive) | > 100 µM (inactive) | > 100 µM (inactive) | > 100 µM (inactive) | > 100 µM (inactive) | > 100 µM (inactive) | > 100 µM (inactive) | > 100 µM (inactive) | > 100 µM (inactive) | > 100 µM (inactive) | > 100 µM (inactive) | > 100 µM (inactive) | > 100 µM (inactive) | > 100 µM (inactive) | > 100 µM (inactive) | – |
| O=C(CC(C(=O)c1cccs1)c1ccc2c(c1)OCO2)c1ccccc1 (stereo not given) | – | > 100 µM (inactive) | > 100 µM (inactive) | > 100 µM (inactive) | 50.5 µM (inactive) | > 100 µM (inactive) | – | > 100 µM (inactive) | 80.4 µM (inactive) | > 100 µM (inactive) | > 100 µM (inactive) | – | > 100 µM (inactive) | > 100 µM (inactive) | > 100 µM (inactive) | > 100 µM (inactive) | > 100 µM (inactive) | > 100 µM (inactive) | 58.9 µM (inactive) | > 100 µM (inactive) |
| COc1ccc(C(=O)/C=C/c2cccnc2)cc1OC | 15.1 µM (inactive) | 14 µM (inactive) | 13.8 µM (inactive) | 14.1 µM (inactive) | 4.36 µM (inactive) | 4.44 µM (inactive) | 3.51 µM (inactive) | 13.4 µM (inactive) | 14.8 µM (inactive) | 14.6 µM (inactive) | 11.1 µM (inactive) | 13.9 µM (inactive) | 14.9 µM (inactive) | 16.2 µM (inactive) | 10.6 µM (inactive) | 14.3 µM (inactive) | – | – | 2.36 µM (inactive) | 15.2 µM (inactive) |
| C[C@]12CC/C(=N\O)C=C1CC[C@@H]1[C@@H]2CC[C@]2(C)C(=N/O)/C(=C/c3ccc([N+](=O)[O-])cc3)C[C@@H]12 | – | 3.52 µM (inactive) | 5.21 µM (inactive) | 3.21 µM (inactive) | 3.07 µM (inactive) | 2.29 µM (inactive) | 2.5 µM (inactive) | 3.56 µM (inactive) | 3.6 µM (inactive) | 13 µM (inactive) | 6.64 µM (inactive) | 3.37 µM (inactive) | 18.4 µM (inactive) | 9.25 µM (inactive) | 6 µM (inactive) | 3.94 µM (inactive) | 5.42 µM (inactive) | – | 1.85 µM (inactive) | 15 µM (inactive) |
| Cc1ccc(NC(=O)/C(=N\NC(N)=O)c2c(O)c3ccccc3[nH]c2=O)cc1 | – | > 100 µM (inactive) | > 100 µM (inactive) | > 100 µM (inactive) | > 100 µM (inactive) | > 100 µM (inactive) | > 100 µM (inactive) | > 100 µM (inactive) | > 100 µM (inactive) | > 100 µM (inactive) | > 100 µM (inactive) | > 100 µM (inactive) | – | > 100 µM (inactive) | > 100 µM (inactive) | > 100 µM (inactive) | > 100 µM (inactive) | > 100 µM (inactive) | > 100 µM (inactive) | – |
| Clc1ccc2c(c1)CC1C[N+]3=C(CCCC3)C1=C2 (stereo not given) | 78.7 µM (inactive) | > 100 µM (inactive) | > 100 µM (inactive) | 50.4 µM (inactive) | > 100 µM (inactive) | > 100 µM (inactive) | 83 µM (inactive) | 28 µM (inactive) | 54.2 µM (inactive) | 72.1 µM (inactive) | 44.8 µM (inactive) | 75.3 µM (inactive) | 89.9 µM (inactive) | > 100 µM (inactive) | 69 µM (inactive) | 39.6 µM (inactive) | 47.9 µM (inactive) | – | 40 µM (inactive) | 36.6 µM (inactive) |
| OC1c2ccccc2C(O)C2OC12 (stereo not given) | – | > 100 µM (inactive) | > 100 µM (inactive) | > 100 µM (inactive) | > 100 µM (inactive) | > 100 µM (inactive) | > 100 µM (inactive) | > 100 µM (inactive) | > 100 µM (inactive) | > 100 µM (inactive) | > 100 µM (inactive) | > 100 µM (inactive) | > 100 µM (inactive) | > 100 µM (inactive) | > 100 µM (inactive) | > 100 µM (inactive) | > 100 µM (inactive) | – | > 100 µM (inactive) | > 100 µM (inactive) |
| Nc1ccc(C23CC4CC(C2)CC(c2ccc(N)cc2)(C4)C3)cc1 | 36.6 µM (inactive) | 29 µM (inactive) | 41.1 µM (inactive) | 13.1 µM (inactive) | 44.3 µM (inactive) | > 100 µM (inactive) | 15.7 µM (inactive) | – | 0.164 µM (active) | 15.7 µM (inactive) | 1.96 µM (inactive) | 14.6 µM (inactive) | 60 µM (inactive) | 15 µM (inactive) | 59.6 µM (inactive) | > 100 µM (inactive) | 3.14 µM (inactive) | 8.09 µM (inactive) | 31 µM (inactive) | – |
| Cc1ccc2nc3ccccc3c(C3C4C(=O)N(c5ccc(F)cc5)C(=O)C4ON3C(C(N)=O)c3ccccc3)c2c1 (stereo not given) | 30.5 µM (inactive) | 20.6 µM (inactive) | 49.3 µM (inactive) | – | 26.4 µM (inactive) | 24.4 µM (inactive) | 38.5 µM (inactive) | 28.8 µM (inactive) | 26.2 µM (inactive) | 41.1 µM (inactive) | 39.8 µM (inactive) | 50.6 µM (inactive) | 71.8 µM (inactive) | 59 µM (inactive) | 29.9 µM (inactive) | 29.4 µM (inactive) | 37.1 µM (inactive) | – | 34.9 µM (inactive) | 27.4 µM (inactive) |
| Nc1c([N+](=O)[O-])cc2c3c(cccc13)CC2 | 26.7 µM (inactive) | 85.1 µM (inactive) | > 100 µM (inactive) | 53.2 µM (inactive) | 39.1 µM (inactive) | > 100 µM (inactive) | 90.6 µM (inactive) | 91.6 µM (inactive) | 62.5 µM (inactive) | 33.7 µM (inactive) | 38.9 µM (inactive) | > 100 µM (inactive) | 74.6 µM (inactive) | > 100 µM (inactive) | 55 µM (inactive) | 78.5 µM (inactive) | 82.2 µM (inactive) | > 100 µM (inactive) | 74.6 µM (inactive) | – |
| COc1cc(C)cc(C(=O)/C=C/c2ccccc2)c1O | 19.4 µM (inactive) | 17.1 µM (inactive) | 18.3 µM (inactive) | 19.8 µM (inactive) | 17.7 µM (inactive) | 19.5 µM (inactive) | 27.7 µM (inactive) | 20.9 µM (inactive) | 26.9 µM (inactive) | 18.3 µM (inactive) | 22.5 µM (inactive) | 40.6 µM (inactive) | 16.7 µM (inactive) | 19.4 µM (inactive) | 16.9 µM (inactive) | 30.3 µM (inactive) | 20.2 µM (inactive) | 18.8 µM (inactive) | 26.4 µM (inactive) | – |
